# Laboratory results published in patent US9499495B2, “Quinazolines and azaquinazolines as dual inhibitors of RAS/RAF/MEK/ERK and PI3K/AKT/PTEN/mTOR pathways” (Asana Biosciences, LLC, priority 2013, dated 2016).
# Legend:
# B-RAFV600E = molecular target: T1, B-RAFV600E (Homo sapiens, UniProt P15056, V600E); experiment: B-RAFV600E radiometric assay; type: biochemical; conditions: read-out: Kinase assay B-Raf
# T1 construct: purchased Millipore, USA 14-557
# Experimental: Compound inhibition for B-RAFV600E was determined through radiometric assay using a BRAF enzyme (Catalog No. 14-557, Millipore, USA) and MEK-K97M protein as a substrate (Catalog No. 0785-0000-1, ProqQinase GmbH, Germany). The B-RAF kinase catalyzes the phosphorylation of MEK protein in the presence of gamma ATP (PLC-101, Jonaki, CCMB, Hyderabad), cold ATP and Mg^2+.
# The phosphorylated protein product is detected by the scintillation counter Topcount® machine (Perkin Elmer). This assay has been adapted from the method previously reported by Yeh et al. (2007, Clinical Cancer Research; 13, 1576-1583). The assay measures the B-RAF mediated transfer of 32P from the gamma position of radiolabeled ATP onto MEK1-KD. The labeled phosphorylated protein was measured in MicroBeta® Trilux Counter (Perkin Elmer). The assay was validated with reference compounds RAF1 Kinase Inhibitor I and ZM 336372 inhibitor which are reported to be inhibitors of B-RAF enzyme (Lackey, 2000, Medicinal Chemistry Letters; 10(3):223-226; Kupcho, “Fluorescent High throughput kinase cascade assays for inhibitor characterization, RAF-MEK-ERK pathway, www.invitrogen.com, and Hall-Jackson, 1999, Chemical Biology; 6(8):559-568). B-RAF enzyme mixture (13 μL) was added to compound wells containing 2 μL of the NCE in 1% DMSO and incubated for 45 min at rt on a shaking incubator at 300 rpm. MEK-K97M (0.5 μg) and cold ATP to a final concentration of 5 μM, and hot ATP 0.1 μCi in a volume of 10 μL was added to each well and incubated for 2 h at rt on a shaking incubator at 300 rpm. The reaction was stopped by addition of […] (13 μL) containing ATP (1 mM: 495 μL 1N HCl and 5 μL 100 mM ATP). Aliquot (30 μL) was then transferred to the center of a 2 cm×2 cm P81 paper. P81 paper was washed 8×5 min each with ortho-phosphoric acid (0.5%). P81 papers are washed twice with acetone for […] Assay squares were allowed to dry for […] at 37° C. P81 paper are transferred to Optiplate™ (Perkin Elmer) and counted in a Topcount® counter (Perkin Elmer). Data was plotted against the compound concentration to generate dose-response curves and IC50 values were determined using a sigmoidal dose response curve fit GraphPad Prism® v5 software.
# mTOR kinase = molecular target: T2, mTOR kinase (Homo sapiens, UniProt P42345); experiment: mTOR kinase TR-FRET assay; type: biochemical
# T2 construct: purchased Millipore, US
# T2 sequence (P42345 1362-2549 limits assumed): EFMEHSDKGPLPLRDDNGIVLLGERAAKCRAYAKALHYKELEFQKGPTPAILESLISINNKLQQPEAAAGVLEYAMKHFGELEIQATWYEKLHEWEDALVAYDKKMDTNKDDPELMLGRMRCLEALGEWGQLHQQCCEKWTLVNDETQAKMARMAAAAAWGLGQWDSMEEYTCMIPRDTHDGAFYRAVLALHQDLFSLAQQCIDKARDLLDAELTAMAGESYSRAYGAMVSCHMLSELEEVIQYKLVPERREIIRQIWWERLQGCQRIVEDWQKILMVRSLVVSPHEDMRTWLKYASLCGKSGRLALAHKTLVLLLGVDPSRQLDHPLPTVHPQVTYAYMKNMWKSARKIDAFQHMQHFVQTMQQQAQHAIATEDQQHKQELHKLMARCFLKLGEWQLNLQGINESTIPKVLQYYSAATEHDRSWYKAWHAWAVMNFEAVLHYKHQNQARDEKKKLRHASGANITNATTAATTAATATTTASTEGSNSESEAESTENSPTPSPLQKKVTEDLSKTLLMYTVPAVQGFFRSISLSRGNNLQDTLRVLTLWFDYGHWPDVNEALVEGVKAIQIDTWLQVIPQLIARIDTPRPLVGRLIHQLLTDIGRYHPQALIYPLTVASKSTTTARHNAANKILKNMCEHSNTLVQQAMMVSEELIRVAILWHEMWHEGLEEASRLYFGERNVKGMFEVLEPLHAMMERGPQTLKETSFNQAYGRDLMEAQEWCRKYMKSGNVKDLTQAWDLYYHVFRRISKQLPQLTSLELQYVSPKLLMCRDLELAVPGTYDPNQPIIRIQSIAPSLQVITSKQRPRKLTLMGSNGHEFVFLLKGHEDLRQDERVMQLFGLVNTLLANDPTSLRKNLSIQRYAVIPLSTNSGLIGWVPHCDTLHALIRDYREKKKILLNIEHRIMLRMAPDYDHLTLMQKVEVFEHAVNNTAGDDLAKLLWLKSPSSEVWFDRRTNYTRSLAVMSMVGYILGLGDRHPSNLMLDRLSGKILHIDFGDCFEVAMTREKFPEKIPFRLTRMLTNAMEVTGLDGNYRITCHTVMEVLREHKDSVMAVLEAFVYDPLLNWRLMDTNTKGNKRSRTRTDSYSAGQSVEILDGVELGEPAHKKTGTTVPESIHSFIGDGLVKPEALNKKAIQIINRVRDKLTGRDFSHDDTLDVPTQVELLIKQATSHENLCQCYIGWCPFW
# Experimental: Compound inhibition for mTOR kinase was determined by homogeneous TR-FRET assay using ULight-p70 S6K (Thr 389) peptide as substrate. mTOR enzyme (Millipore, US; […]) was used in the assay. The reaction buffer was HEPES (50 mM, pH 7.5), EGTA (1 mM), and MnCl2 (3 mM). Test compound was pre-incubated with mTOR for 30 min followed by 50 nM ULight-p70 S6K (Thr 389) peptide along with ATP (20 μM).
# After incubating the reaction mixture for 30 min, Eu-labeled anti-phospho-substrate antibody (1 nM, Perkin Elmer, USA) was added. Fluorescence emission at […] was measured upon excitation at 340 nm. The compound dilution was carried out in 100% DMSO followed by a buffer dilution. The kinase reaction was incubated for 1 h at rt followed by the addition of substrate-ATP mix and incubated at rt for 1 h. The reaction was terminated by the addition of EDTA followed by the addition of detection mix. IC50 values were determined using a sigmoidal dose response curve fit, GraphPad Prism® v5 software.
# T1 sequence (P15056 416-766 V600E limits assumed): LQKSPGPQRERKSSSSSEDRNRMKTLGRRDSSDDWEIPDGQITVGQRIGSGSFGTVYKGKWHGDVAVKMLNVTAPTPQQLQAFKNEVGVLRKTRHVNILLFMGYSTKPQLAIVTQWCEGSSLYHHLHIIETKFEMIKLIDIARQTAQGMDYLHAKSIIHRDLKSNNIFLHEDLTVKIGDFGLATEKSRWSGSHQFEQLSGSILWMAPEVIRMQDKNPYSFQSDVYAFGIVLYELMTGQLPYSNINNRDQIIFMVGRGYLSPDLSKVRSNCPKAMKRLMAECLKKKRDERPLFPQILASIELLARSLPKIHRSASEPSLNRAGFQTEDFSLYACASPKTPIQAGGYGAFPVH
SMILES,IC50 (B-RAFV600E) [nM],IC50 (mTOR kinase) [nM]
"CCCCS(=O)(=O)Nc1cccc(-c2cc(OC)c3nc(-c4cnc(N)nc4)nc(N4CCOCC4)c3c2)c1F [Example 23, N-(3-(2-(2-aminopyrimidin-5-yl)-8-methoxy-4-morpholinoquinazolin-6-yl)-2-fluorophenyl)butane-1-sulfonamide]",100 to 1000,100 to 1000
"COc1cc(-c2cccc(NS(=O)(=O)c3ccc(F)cc3F)c2F)cc2c(N3CCOCC3)nc(-c3cnc(N)nc3)nc12 [Example 24, N-(3-(2-(2-aminopyrimidin-5-yl)-8-methoxy-4-morpholinoquinazolin-6-yl)-2-fluorophenyl)-2,4-difluorobenzenesulfonamide]",100 to 1000,100 to 1000
"COc1cc(-c2cccc(NS(=O)(=O)CCC(F)(F)F)c2F)cc2c(N3CCOCC3)nc(-c3ccc(N)nc3)nc12 [Example 31, N-(3-(2-(6-aminopyridin-3-yl)-8-methoxy-4-morpholinoquinazolin-6-yl)-2-fluorophenyl)-3,3,3-trifluoropropane-1-sulfonamide]",100 to 1000,100 to 1000
"COc1cc(-c2cccc(NS(=O)(=O)CCCF)c2F)cc2c(N3CCOC[C@H]3C)nc(-c3cnc4[nH]ccc4c3)nc12 [Example 44, (R)-3-fluoro-N-(2-fluoro-3-(8-methoxy-4-(3-methylmorpholino)-2-(1H-pyrrolo[2,3-b]pyridin-5-yl)quinazolin-6-yl)phenyl)propane-1-sulfonamide]",100 to 1000,100 to 1000
"CCCNc1ccc(-c2nc(N3CCOCC3)c3cc(-c4cccc(NS(=O)(=O)CCCF)c4F)cc(OC)c3n2)cn1 [Example 49, 3-fluoro-N-(2-fluoro-3-(8-methoxy-4-morpholino-2-(6-(propylamino)pyridin-3-yl)quinazolin-6-yl)phenyl)propane-1-sulfonamide]",1 to 100,100 to 1000
"Nc1ccc(-c2nc(N3CCOCC3)c3cc(-c4cccc(NS(=O)(=O)CCCF)c4F)cc(OCC(=O)O)c3n2)cn1 [Example 59, 2-((2-(6-aminopyridin-3-yl)-6-(2-fluoro-3-(3-fluoropropylsulfonamido)phenyl)-4-morpholino-quinazolin-8-yl)oxy)acetic acid 2,2,2-trifluoroacetate]",100 to 1000,1 to 100
"C[C@@H]1COCCN1c1nc(-c2ccc(N)nc2)nc2c(N3CCCC3)cc(-c3cccc(NS(=O)(=O)CCCF)c3F)cc12 [Example 74, (R)-N-(3-(2-(6-aminopyridin-3-yl)-4-(3-methylmorpholino)-8-(pyrrolidin-1-yl)quinazolin-6-yl)-2-fluorophenyl)-3-fluoropropane-1-sulfonamide]",1 to 100,100 to 1000
"COc1cc(-c2c(Cl)ccc(NS(=O)(=O)CCCF)c2F)cc2c(N3CCOCC3)nc(-c3ccc(N)nc3)nc12 [Example 85, N-(3-(2-(6-aminopyridin-3-yl)-8-methoxy-4-morpholinoquinazolin-6-yl)-4-chloro-2-fluorophenyl)-3-fluoropropane-1-sulfonamide]",1 to 100,100 to 1000
"COCCNc1ccc(-c2nc(N3CCOCC3)c3nc(-c4cccc(NS(=O)(=O)CCCF)c4F)ccc3n2)cn1 [Example 133, 3-fluoro-N-(2-fluoro-3-(2-(6-((2-methoxyethyl)amino)pyridin-3-yl)-4-morpholinopyrido[3,2-d]pyrimidin-6-yl)phenyl)propane-1-sulfonamide]",1 to 100,100 to 1000
"CCOc1cc(-c2cccc(NS(=O)(=O)CCCF)c2F)cc2c(N3CCOC[C@H]3C)nc(-c3cnc(NC)nc3)nc12 [Example 138, (R)-N-(3-(8-ethoxy-2-(2-(methylamino)pyrimidin-5-yl)-4-(3-methylmorpholino)quinazolin-6-yl)-2-fluorophenyl)-3-fluoropropane-1-sulfonamide]",1 to 100,100 to 1000

# Further lines, results first:
IC50 (B-RAFV600E) [nM],IC50 (mTOR kinase) [nM],SMILES
100 to 1000,100 to 1000,"CCCS(=O)(=O)Nc1cccc(-c2cc(OCCO)c3nc(-c4ccc(N)nc4)nc(N4CCOCC4)c3c2)c1F [Example 4, N-(3-(2-(6-aminopyridin-3-yl)-8-(2-hydroxyethoxy)-4-morpholinoquinazolin-6-yl)-2-fluorophenyl)propane-1-sulfonamide]"
100 to 1000,100 to 1000,"CCCS(=O)(=O)Nc1cccc(-c2cc(OC)c3nc(-n4c(CO)nc5ccccc54)nc(N4CCOCC4)c3c2)c1F [Example 10, N-(2-fluoro-3-(2-(2-(hydroxymethyl)-1H-benzo[d]imidazol-1-yl)-8-methoxy-4-morpholinoquinazolin-6-yl)phenyl)propane-1-sulfonamide]"
100 to 1000,1 to 100,"CCCS(=O)(=O)Nc1cccc(-c2cc(OC)c3nc(-c4ccc(NC(=O)Nc5ccncc5)cc4)nc(N4CCOCC4)c3c2)c1F [Example 34, N-(2-fluoro-3-(8-methoxy-4-morpholino-2-(4-(3-(pyridin-4-yl)ureido)phenyl)quinazolin-6-yl)phenyl) propane-1-sulfonamide]"
1 to 100,100 to 1000,"COc1cc(-c2cccc(NS(=O)(=O)CCCF)c2F)cc2c(N3CCOCC3)nc(-c3cnc(N)nc3C)nc12 [Example 35, N-(3-(2-(2-amino-4-methylpyrimidin-5-yl)-8-methoxy-4-morpholinoquinazolin-6-yl)-2-fluorophenyl)-3-fluoropropane-1-sulfonamide]"
1 to 100,100 to 1000,"CCOc1cc(-c2cccc(NS(=O)(=O)CCCF)c2F)cc2c(N3CCOC[C@H]3C)nc(-c3cnc4[nH]ccc4c3)nc12 [Example 61, (R)-N-(3-(8-ethoxy-4-(3-methylmorphollno)-2-(1H-pyrrolo[2,3-b]pyridin-5-yl)quinazolin-6-yl)-2-fluorophenyl)-3-fluoropropane-1-sulfonamide]"
1 to 100,100 to 1000,CCOc1cc(-c2cccc(NS(=O)(=O)CCCF)c2F)cc2c(N3CCOC[C@@H]3C)nc(-c3cnc(N)nc3)nc12 [Example 66]
1 to 100,1 to 100,"C[C@@H]1COCCN1c1nc(-c2ccc(N)nc2)nc2c(N3CCOCC3)cc(-c3cccc(NS(=O)(=O)CCCF)c3F)cc12 [Example 72, (R)-N-(3-(2-(6-aminopyridin-3-yl)-4-(3-methylmorpholino)-8-morpholinoquinazolin-6-yl)-2-fluorophenyl)-3-fluoropropane-1-sulfonamide]"
1 to 100,100 to 1000,COc1cc(-c2c(F)ccc(NS(=O)(=O)CCCF)c2F)cc2c(N3CCOCC3)nc(-c3cnc4[nH]ccc4c3)nc12 [Example 83]
1 to 100,100 to 1000,"CCc1cc(-c2cccc(NS(=O)(=O)CCCF)c2F)cc2c(N3CCOC[C@H]3C)nc(-c3cnc(N)nc3)nc12 [Example 119, (R)-N-(3-(2-(2-aminopyrimidin-5-yl)-8-ethyl-4-(3-methylmorpholino)quinazolin-6-yl)-2-fluorophenyl)-3-fluoropropane-1-sulfonamide]"
1 to 100,100 to 1000,"COc1cc(-c2cccc(NS(=O)(=O)CCCF)c2F)cc2c(N3CCOCC3)nc(-c3ccc(NC(C)=O)nc3)nc12 [Example 124, N-(5-(6-(2-fluoro-3-(3-fluoropropylsulfonamido)phenyl)-8-methoxy-4-morpholinoquinazolin-2-yl)pyridin-2-yl)acetamide]"
100 to 1000,100 to 1000,"COc1cc(-c2cccc(NS(=O)(=O)CCCF)c2F)cc2c(N3CCOCC3)nc(-c3ccc(NS(C)(=O)=O)cc3)nc12 [Example 126, 3-f1uoro-N-(2-fluoro-3-(8-methoxy-2-(4-(methylsulfonamido)phenyl)-4-morpholinoquinazolin-6-yl)phenyl)propane-1-sulfonamide]"
